Values of other authors as cited in patent US20140065213A1, “Sustained Release Paracetamol Formulations” (GlaxoSmithKline, LLC, priority 2011, published 2014).

tmax (maximum plasma concentration) (oral doses of conventional immediate release tablets): 30 to 90 min
elimination half-life (reported): 1.9 to 2.5 h
Compound: CC(=O)Nc1ccc(O)cc1 [paracetamol, N-acetyl-p-aminophenol]
